According to PubChem BioAssay AID2060511 (Molecular Pharmacology Branch, DTP, NCI, 2025):

System: 422866-222-R5-J1-PDC spheroids with HUVEC/MSC, viability
Experiment: Anticancer human tumor 422866-222-R5-J1-PDC patient-derived pancreatic adenocarcinoma cell line growth inhibition [GQUAD]
Conditions: for IC50: curve of first compound; for viability, T/C: stronger effect = lower value; active = viability on the fitted dose curve at most 10% of control; inactive = the rest
Source text: DNA G-quadruplex Stabilizer Agents in Combinations in Complex Spheroids
A high-throughput screen of multi-cell type tumor spheroids was designed to identify active combinations of DNA G-quadruplex stabilizer agents and targeted small molecules. Complex spheroids include a stromal component modeled by human endothelial cells (HUVEC) and fibroblasts modeled by human mesenchymal stem cells (MSCs). The concentration ranges selected for each drug and investigational agent were based upon clinically achievable concentrations if the clinical Cmax of the agent was known.
Compounds. The drugs and investigational agents: pidnarulex (CX-5461; NSC782164), APTO-253 (NSC789042), BRACO-19 (NSC847499), peposertib (NSC802822), ceralasertib (NSC780249), elimusertib (NSC800525), camonsertib (NSC841442), AZD-1390 (NSC803789), olaparib (NSC753686), talazoparib (NSC767125), ART-558 (NSC835418), sotorasib (NSC818433), MRTX-1133 (NSC836407), SN-38 (NSC673596), topotecan (NSC609699), etoposide (NSC141540), doxorubicin (NSC123127), gemcitabine (NSC613327), 5-fluorouracil (NSC19893), paclitaxel (NSC125973), vemurafenib (NSC761431), panobinostat (NSC761190), R-306465 (JNJ-16241199; NSC773264), adavosertib (NSC754352), TP-3654 (NSC805149), carboplatin (NSC241240), KSQ-4279 (NSC840948), and staurosporine (NSC755774) were obtained from the National Cancer Institute (NCI) Developmental Therapeutics Program Chemical Repository (34). The FDA-approved anticancer drug set is available from the NCI Developmental Therapeutics Program. […] The stock solutions were prepared in dimethyl sulfoxide (DMSO, Sigma-Aldrich, St. Louis, MO, cat. D2650) at 800-fold the tested concentration and stored at -70 degrees C prior to their use. All drugs and investigational agents were tested over a range starting from a high concentration at or near the clinical Cmax and decreasing in half-log increments. If the clinical Cmax for an agent had not been determined, the highest concentration tested was 10 microM.
2.3 Cell Culture. All cells were maintained in an incubator at 37 degrees C and 5% CO2 with 95% humidity. The PDC lines were cultured according to standard operating procedures established by the NCI PDMR. All PDCs were thawed and cultured in Matrigel-coated flasks prepared with a working solution of 1X Ham's F-12 nutrient mix, without supplementation (Invitrogen, cat. 11765054), 100 U/mL penicillin-streptomycin (Invitrogen, cat. 15140122), and 2.5% Matrigel (Corning Inc., cat. 354248) for the first three passages. The 857933-349-R-J2-PDC line was cultured in 6C/Colon 1B media, which includes advanced DMEM/F-12 (Thermo Fisher Scientific, cat. 12634028), 10 mM HEPES (Thermo Fisher Scientific, cat. 15630080), 1X GlutaMAX supplement (Thermo Fisher Scientific, cat. 35050061), 0.1 mg/mL primocin (InvivoGen, cat. ant-pm-2), 10% defined fetal bovine serum, heat inactivated (HyClone Laboratories Inc., cat. SH30070.03HI), 50% L-WRN conditioned media (ATCC, cat. CRL-3276), 1.25 mM N-Acetyl-L-cysteine (Sigma-Aldrich, cat. A9165), 10 mM nicotinamide (Sigma-Aldrich, cat. N0636), 1X B-27 supplement (Thermo Fisher Scientific, cat. 17504044), 1X N-2 supplement (Thermo Fisher Scientific, cat. 17502048), 10 microM Y-27632 dihydrochloride (Tocris Bioscience, cat. 1254), and 50 ng/mL human EGF recombinant protein (Thermo Fisher Scientific, cat. PHG0311). The 485176-168-R4-J1-PDC line was cultured in Panc media, which includes all 6C/Colon 1B media components plus 100 ng/mL human FGF-10 (Thermo Fisher Scientific, cat. 100-26), 500 nM SB-431542 (Selleckchem, cat. S1067), and gastrin (Tocris, cat. 3006).
[…]
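Also: spheroids exposed to compounds for seven days before reading.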
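For viability, T/C in this document: percent viability relative to DMSO vehicle control taken as 100%.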

CCc1c2c(nc3ccc(O)cc13)-c1cc3c(c(=O)n1C2)COC(=O)[C@]3(O)CC + Cc1[nH]c2ccc(F)cc2c1-c1nc2c3cccnc3c3ncccc3c2[nH]1
2.5 nM: IC50 (second compound 0.0316 µM)
1.44 nM: IC50 (second compound 3.16 µM)
1.99 nM: IC50 (second compound 1 µM)
< 0.999 nM: IC50 (second compound 0.316 µM) | IC50 (second compound 10 µM)
2.17 nM: IC50 (second compound 0.1 µM)
inactive: viability, T/C (second compound 0.0316 µM, first compound 0.000999 µM) 61.3% | viability, T/C (second compound 0.0316 µM, first compound 0.00316 µM) 43.6% | viability, T/C (second compound 0.0316 µM, first compound 0.00999 µM) 41.5% | viability, T/C (second compound 0.0316 µM, first compound 0.0316 µM) 41.4% | viability, T/C (second compound 0.0316 µM, first compound 0.0999 µM) 36.3% | viability, T/C (second compound 0.0316 µM, first compound 0.316 µM) 30.3% | viability, T/C (second compound 0.1 µM, first compound 0.000999 µM) 60% | viability, T/C (second compound 0.1 µM, first compound 0.00316 µM) 44.6% | viability, T/C (second compound 0.1 µM, first compound 0.00999 µM) 38% | viability, T/C (second compound 0.1 µM, first compound 0.0316 µM) 34.3% | viability, T/C (second compound 0.1 µM, first compound 0.0999 µM) 38.7% | viability, T/C (second compound 0.1 µM, first compound 0.316 µM) 28.1% | viability, T/C (second compound 0.316 µM, first compound 0.000999 µM) 52.8% | viability, T/C (second compound 0.316 µM, first compound 0.00316 µM) 40.8% | viability, T/C (second compound 0.316 µM, first compound 0.00999 µM) 39.5% | viability, T/C (second compound 0.316 µM, first compound 0.0316 µM) 45% | viability, T/C (second compound 0.316 µM, first compound 0.0999 µM) 39.2% | viability, T/C (second compound 0.316 µM, first compound 0.316 µM) 25.9% | viability, T/C (second compound 1 µM, first compound 0.000999 µM) 55.8% | viability, T/C (second compound 1 µM, first compound 0.00316 µM) 45.6% | viability, T/C (second compound 1 µM, first compound 0.00999 µM) 39.9% | viability, T/C (second compound 1 µM, first compound 0.0316 µM) 38% | viability, T/C (second compound 1 µM, first compound 0.0999 µM) 38.3% | viability, T/C (second compound 1 µM, first compound 0.316 µM) 31.2% | viability, T/C (second compound 3.16 µM, first compound 0.000999 µM) 54.3% | viability, T/C (second compound 3.16 µM, first compound 0.00316 µM) 40.9% | viability, T/C (second compound 3.16 µM, first compound 0.00999 µM) 36.4% | viability, T/C (second compound 3.16 µM, first compound 0.0316 µM) 35.4% | viability, T/C (second compound 3.16 µM, first compound 0.0999 µM) 37.7% | viability, T/C (second compound 3.16 µM, first compound 0.316 µM) 31.6% | viability, T/C (second compound 10 µM, first compound 0.000999 µM) 48.8% | viability, T/C (second compound 10 µM, first compound 0.00316 µM) 41.5% | viability, T/C (second compound 10 µM, first compound 0.00999 µM) 44% | viability, T/C (second compound 10 µM, first compound 0.0316 µM) 40.7% | viability, T/C (second compound 10 µM, first compound 0.0999 µM) 34.2% | viability, T/C (second compound 10 µM, first compound 0.316 µM) 27.7%
